Data published in US20250262279A1, “DOSE REGIMEN FOR LONG-ACTING GLP1/GLUCAGON RECEPTOR AGONISTS” (Boehringer Ingelheim International GmbH, priority 2021, published 2025).

Key:
[1] = Example 2 Phase I study in healthy Japanese men: safety and tolerability; assay type: in vivo, human
From the text: This study was a randomised, placebo-controlled, single-blind, and parallel-group clinical trial with up to 3 dose-escalation schemes (Dose Groups [DGs]1 to 3) in healthy Japanese male subjects with BMI 23 to 40 kg/m^2. The weekly (DG1 and DG2) or twice a week (DG3) dosing in this scheme allowed for immediate clinical evaluation whether a further increase in the cumulative weekly dose was safe and well tolerated. The treatment duration was 16 weeks in total including a dose escalation phase to minimize Gastrointestinal (GI) Adverse Events (AEs) of Compound I. This was followed by a 4-week follow-up period.
The primary endpoint to assess the safety and tolerability of Compound I was the cumulative percentage (%) of subjects withdrawn from the up-titration by the dose escalation scheme.
• AEs (including clinically relevant findings from the physical examination) • Safety laboratory tests • 12-lead electrocardiogram (ECG) • Continuous ECG monitoring • Vital signs (blood pressure, pulse rate) • Columbia-Suicide Severity Rating Scale (C-SSRS) • Change from baseline in heart rate following treatment with Compound I relative to placebo (until 24 hours after Compound I administration) • The cumulative number [N (%)] of subjects withdrawn from the up-titration by the dose escalation scheme and week
The main objective of this trial was to assess the safety and tolerability of Compound I as well as PK and PD parameters by using descriptive statistics for all endpoints, which were compared across treatment groups. Further analysis comprised linear modelling for attainment of steady state in DG1.

[2] = Example 1 Phase I titration study in obesity/overweight: safety and tolerability
From the text: Blinded within dose groups, randomised, placebo-controlled
• Male patients (Part A); male and female patients (Part B) • Age 18 to <70 years • BMI 27 to <40 kg/m^2 • Body weight of at least 70 kg for women and 80 kg for men • Stable body weight, defined as no more than 5% change within 3 months prior to screening
Further criteria of interest: • AEs (including clinically relevant findings from the physical examination and assessment of local tolerability) • Safety laboratory tests • 12-lead ECG • Vital signs (blood pressure, pulse rate) • Continuous ECG (including mean daily heart rate) • Assessment of local tolerability by the investigator • The cumulative number [N (%)] of patients withdrawn from up-titration by up-titration scheme and week
Descriptive statistics were calculated for all endpoints. […] No formal interim analysis was conducted. Data from the completed 6-week cohorts were analysed before database lock for internal decision-making.

[3] = Ex.1 Part B, Weekly 6 (twice weekly)

CC[C@H](C)[C@H](NC(=O)[C@H](Cc1ccccc1)NC(=O)[C@H](CC(=O)O)NC(=O)[C@H](CCCCN)NC(=O)[C@H](C)NC(=O)[C@H](C)NC(=O)[C@H](CCCNC(=N)N)NC(=O)[C@H](CCC(=O)O)NC(=O)[C@H](CC(=O)O)NC(=O)[C@H](CC(C)C)NC(=O)[C@H](Cc1ccc(O)cc1)NC(=O)[C@H](CCCCN)NC(=O)[C@H](CO)NC(=O)[C@H](Cc1ccc(O)cc1)NC(=O)[C@H](CC(=O)O)NC(=O)[C@H](CO)NC(=O)[C@@H](NC(=O)[C@H](Cc1ccccc1)NC(=O)[C@@H](NC(=O)CNC(=O)[C@H](CCC(N)=O)NC(=O)C1(NC(=O)[C@@H](N)Cc2c[nH]cn2)CCC1)[C@@H](C)O)[C@@H](C)O)C(=O)N[C@@H](CCCCNC(=O)CNC(=O)CNC(=O)[C@H](CO)NC(=O)CNC(=O)[C@H](CO)NC(=O)CNC(=O)CC[C@H](NC(=O)CCCCCCCCCCCCCCCCC(=O)O)C(=O)O)C(=O)N[C@@H](Cc1c[nH]c2ccccc12)C(=O)N[C@@H](CC(C)C)C(=O)N[C@@H](CCC(=O)O)C(=O)N[C@@H](CO)C(=O)N[C@@H](C)C(N)=O [Compound I]
AEs in the cardiac disorder class ([1]; Ex.2): no AEs reported
clinical laboratory values ([1]; Ex.2): Findings of clinical relevance were not observed
deaths and AEs of special interest ([1]; Ex.2): neither deaths nor AEs of special interest reported
vital signs, ECG evaluation, local tolerability, suicidal risk assessment ([1]; Ex.2): No clinically relevant findings
Subjects with investigator defined drug-related AEs ([1]; Ex.2 Cmp I Total): 27 N
Number of subjects withdrawn from the up-titration ([1]; Ex.2 Compound I Total): 10 N
pulse rate ([1]; Ex.2 Compound I dosing groups): expected increase in pulse rate
Number of subjects withdrawn from the up-titration ([1]; Ex.2 DG1): 2 N
subjects with AE decreased appetite ([1]; Ex.2 DG1): 8 subjects
subjects with AE decreased appetite ([1]; Ex.2 DG1, of 9 trial subjects): 88.9%
Number of subjects withdrawn from the up-titration ([1]; Ex.2 DG2): 6 N
subjects with AE decreased appetite ([1]; Ex.2 DG2): 9 subjects
subjects with severe vomiting ([1]; Ex.2 DG2): 1 subject
subjects with AE decreased appetite ([1]; Ex.2 DG2, of 9 trial subjects): 100.0%
subjects with severe vomiting ([1]; Ex.2 DG2, of 9 trial subjects): 11.1%
subjects with AE decreased appetite ([1]; Ex.2 DG3): 7 subjects
subjects with severe diarrhoea ([1]; Ex.2 DG3): 1 subject
Number of subjects withdrawn from the up-titration ([1]; Ex.2 DG3 (twice weekly)): 2 N
subjects with AE decreased appetite ([1]; Ex.2 DG3, of 9 trial subjects): 77.8%
subjects with severe diarrhoea ([1]; Ex.2 DG3, of 9 trial subjects): 11.1%
clinical laboratory analyses ([2]; Ex.1 Part A): no treatment-emergent clinically relevant findings
deaths ([2]; Ex.1 Part A): No patients died
Patients withdrawn from up-titration ([2]; Ex.1 Part A (6 wk), Compound I total): 27 (40.3) N (%)
Patients withdrawn from up-titration ([2]; Ex.1 Part A (6 wk), Weekly 1): 6 (35.3) N (%)
Patients withdrawn from up-titration ([2]; Ex.1 Part A (6 wk), Weekly 2): 8 (44.4) N (%)
Patients withdrawn from up-titration ([2]; Ex.1 Part A (6 wk), Weekly 3): 13 (76.5) N (%)
Patients with AE leading to discontinuation of trial drug ([2]; Ex.1 Part A, Cmp I total): 5 (7.5) N (%)
Patients with any AE ([2]; Ex.1 Part A, Cmp I total): 67 (100) N (%)
Patients with investigator defined drug-related AE ([2]; Ex.1 Part A, Cmp I total): 67 (100) N (%)
Patients with other significant AEs (ICH E3) ([2]; Ex.1 Part A, Cmp I total): 5 (7.5) N (%)
Patients with serious AE ([2]; Ex.1 Part A, Cmp I total): 1 (1.5) N (%)
Patients with severe AE ([2]; Ex.1 Part A, Cmp I total): 3 (4.5) N (%)
Patients with AE leading to discontinuation of trial drug ([2]; Ex.1 Part A, Daily): 0 N (%)
Patients with any AE ([2]; Ex.1 Part A, Daily): 15 (100) N (%)
Patients with investigator defined drug-related AE ([2]; Ex.1 Part A, Daily): 15 (100) N (%)
Patients with other significant AEs (ICH E3) ([2]; Ex.1 Part A, Daily): 0 N (%)
Patients with serious AE ([2]; Ex.1 Part A, Daily): 0 N (%)
Patients with severe AE ([2]; Ex.1 Part A, Daily): 0 N (%)
drug-related abdominal distension, frequency ([2]; Ex.1 Part A, Daily): 13.3%
drug-related cardiac disorders ([2]; Ex.1 Part A, Daily): No drug-related cardiac disorders were reported
drug-related vomiting, frequency ([2]; Ex.1 Part A, Daily): no cases
Patients with AE leading to discontinuation of trial drug ([2]; Ex.1 Part A, Weekly 1): 1 (5.9) N (%)
Patients with any AE ([2]; Ex.1 Part A, Weekly 1): 17 (100) N (%)
Patients with investigator defined drug-related AE ([2]; Ex.1 Part A, Weekly 1): 17 (100) N (%)
Patients with other significant AEs (ICH E3) ([2]; Ex.1 Part A, Weekly 1): 1 (5.9) N (%)
Patients with serious AE ([2]; Ex.1 Part A, Weekly 1): 0 N (%)
Patients with severe AE ([2]; Ex.1 Part A, Weekly 1): 1 (5.9) N (%)
proportion of patients who withdrew from up-titration ([2]; Ex.1 Part A, Weekly 1): 35.3%
patients with severe diarrhoea ([2]; Ex.1 Part A, Weekly 1 and Weekly 2): 2 patients
Patients with AE leading to discontinuation of trial drug ([2]; Ex.1 Part A, Weekly 2): 2 (11.1) N (%)
Patients with any AE ([2]; Ex.1 Part A, Weekly 2): 18 (100) N (%)
Patients with investigator defined drug-related AE ([2]; Ex.1 Part A, Weekly 2): 18 (100) N (%)
Patients with other significant AEs (ICH E3) ([2]; Ex.1 Part A, Weekly 2): 2 (11.1) N (%)
Patients with serious AE ([2]; Ex.1 Part A, Weekly 2): 1 (5.6) N (%)
Patients with severe AE ([2]; Ex.1 Part A, Weekly 2): 2 (11.1) N (%)
patients with severe vomiting ([2]; Ex.1 Part A, Weekly 2): one
proportion of patients who withdrew from up-titration ([2]; Ex.1 Part A, Weekly 2): 44.4%
patients with serious AE ventricular tachycardia ([2]; Ex.1 Part A, Weekly 2, assessed as drug-related, led to discontinuation): One
Patients with AE leading to discontinuation of trial drug ([2]; Ex.1 Part A, Weekly 3): 2 (11.8) N (%)
Patients with any AE ([2]; Ex.1 Part A, Weekly 3): 17 (100) N (%)
Patients with investigator defined drug-related AE ([2]; Ex.1 Part A, Weekly 3): 17 (100) N (%)
Patients with other significant AEs (ICH E3) ([2]; Ex.1 Part A, Weekly 3): 2 (11.8) N (%)
Patients with serious AE ([2]; Ex.1 Part A, Weekly 3): 0 N (%)
Patients with severe AE ([2]; Ex.1 Part A, Weekly 3): 0 N (%)
proportion of patients who withdrew from up-titration ([2]; Ex.1 Part A, Weekly 3): 76.5%
proportion of patients who withdrew from up-titration ([2]; Ex.1 Part A, all Compound I groups): 40.3%
continuous ECG monitoring over 24 hours, mean heart rate ([2]; Ex.1 Part A, all Compound I treatment groups): increases in mean heart rate
clinical laboratory analyses ([2]; Ex.1 Part B): no treatment-emergent clinically relevant findings
deaths ([2]; Ex.1 Part B): No patients died
drug-related cardiac disorders ([2]; Ex.1 Part B): no cases
Patients withdrawn from up-titration ([2]; Ex.1 Part B (16 wk), Compound I total): 8 (22.2) N (%)
Patients withdrawn from up-titration ([2]; Ex.1 Part B (16 wk), Weekly 4): 3 (23.1) N (%)
Patients withdrawn from up-titration ([2]; Ex.1 Part B (16 wk), Weekly 5): 4 (36.4) N (%)
Patients withdrawn from up-titration ([2]; Ex.1 Part B (16 wk), Weekly 6 (twice weekly)): 1 (8.3) N (%)
Patients with AE leading to discontinuation of trial drug ([2]; Ex.1 Part B, Cmp I Total): 6 (16.7) N (%)
Patients with any AE ([2]; Ex.1 Part B, Cmp I Total): 35 (97.2) N (%)
Patients with investigator defined drug-related AE ([2]; Ex.1 Part B, Cmp I Total): 35 (97.2) N (%)
Patients with other significant AEs (ICH E3) ([2]; Ex.1 Part B, Cmp I Total): 8 (22.2) N (%)
Patients with serious AE ([2]; Ex.1 Part B, Cmp I Total): 0 N (%)
Patients with severe AE ([2]; Ex.1 Part B, Cmp I Total): 8 (22.2) N (%)
Patients with AE leading to discontinuation of trial drug ([2]; Ex.1 Part B, Weekly 4): 3 (23.1) N (%)
Patients with any AE ([2]; Ex.1 Part B, Weekly 4): 13 (100.0) N (%)
Patients with investigator defined drug-related AE ([2]; Ex.1 Part B, Weekly 4): 13 (100.0) N (%)
Patients with other significant AEs (ICH E3) ([2]; Ex.1 Part B, Weekly 4): 4 (30.8) N (%)
Patients with serious AE ([2]; Ex.1 Part B, Weekly 4): 0 N (%)
Patients with severe AE ([2]; Ex.1 Part B, Weekly 4): 4 (30.8) N (%)
drug-related gastrointestinal disorders, frequency ([2]; Ex.1 Part B, Weekly 4): 92.3%
Patients with AE leading to discontinuation of trial drug ([2]; Ex.1 Part B, Weekly 5): 2 (18.2) N (%)
Patients with any AE ([2]; Ex.1 Part B, Weekly 5): 11 (100.0) N (%)
Patients with investigator defined drug-related AE ([2]; Ex.1 Part B, Weekly 5): 11 (100.0) N (%)
Patients with other significant AEs (ICH E3) ([2]; Ex.1 Part B, Weekly 5): 3 (27.3) N (%)
Patients with serious AE ([2]; Ex.1 Part B, Weekly 5): 0 N (%)
Patients with severe AE ([2]; Ex.1 Part B, Weekly 5): 4 (36.4) N (%)
drug-related gastrointestinal disorders, frequency ([2]; Ex.1 Part B, Weekly 5): all patients
proportion of patients who withdrew from up-titration ([2]; Ex.1 Part B, Weekly 5): 36.4%
Patients with AE leading to discontinuation of trial drug [2, 3]: 1 (8.3) N (%)
Patients with any AE [2, 3]: 11 (91.7) N (%)
Patients with investigator defined drug-related AE [2, 3]: 11 (91.7) N (%)
Patients with other significant AEs (ICH E3) [2, 3]: 1 (8.3) N (%)
Patients with serious AE [2, 3]: 0 N (%)
Patients with severe AE [2, 3]: 0 N (%)
drug-related gastrointestinal disorders, frequency [2, 3]: 58.3%
proportion of patients who withdrew from up-titration [2, 3]: 8.3%
proportion of patients who withdrew from up-titration ([2]; Ex.1 Part B, all Compound I groups): 22.2%
ECG analyses, heart rate ([2]; Ex.1 Part B, all Compound I treatment groups): increases in heart rate
